ChEMBL document CHEMBL4665642, “Anticancer profile of newly synthesized BRAF inhibitors possess 5-(pyrimidin-4-yl)imidazo[2,1-b]thiazole scaffold” (Bioorg Med Chem, 2019)

Columns and labels:
Format in all cases: functional
Details in all cases: read-out: Activity
UO-31 = test: Cytotoxicity against human UO-31 cells assessed as cell viability at 10 uM incubated for 48 hrs by sulforhodamine B assay relative to control
NCI-H23 = test: Cytotoxicity against human NCI-H23 cells assessed as cell viability at 10 uM incubated for 48 hrs by sulforhodamine B assay relative to control
HOP-92 = test: Cytotoxicity against human HOP-92 cells assessed as cell viability at 10 uM incubated for 48 hrs by sulforhodamine B assay relative to control
NCI/ADR-RES = test: Cytotoxicity against human NCI/ADR-RES cells assessed as cell viability at 10 uM incubated for 48 hrs by sulforhodamine B assay relative to control
SW-620 = test: Cytotoxicity against human SW-620 cells assessed as cell viability at 10 uM incubated for 48 hrs by sulforhodamine B assay relative to control
NCI-H522 = test: Cytotoxicity against human NCI-H522 cells assessed as cell viability at 10 uM incubated for 48 hrs by sulforhodamine B assay relative to control
TK-10 = test: Cytotoxicity against human TK-10 cells assessed as cell viability at 10 uM incubated for 48 hrs by sulforhodamine B assay relative to control
HCT-15 = test: Cytotoxicity against human HCT-15 cells assessed as cell viability at 10 uM incubated for 48 hrs by sulforhodamine B assay relative to control
HCC 2998 = test: Cytotoxicity against human HCC 2998 cells assessed as cell viability at 10 uM incubated for 48 hrs by sulforhodamine B assay relative to control
OVCAR-5 = test: Cytotoxicity against human OVCAR-5 cells assessed as cell viability at 10 uM incubated for 48 hrs by sulforhodamine B assay relative to control
MDA-MB-231 = test: Cytotoxicity against human MDA-MB-231 cells assessed as cell viability at 10 uM incubated for 48 hrs by sulforhodamine B assay relative to control
SF-295 = test: Cytotoxicity against human SF-295 cells assessed as cell viability at 10 uM incubated for 48 hrs by sulforhodamine B assay relative to control
NCI-H322M = test: Cytotoxicity against human NCI-H322M cells assessed as cell viability at 10 uM incubated for 48 hrs by sulforhodamine B assay relative to control
Hs-578T = test: Cytotoxicity against human HS-578T cells assessed as cell viability at 10 uM incubated for 48 hrs by sulforhodamine B assay relative to control
EKVX = test: Cytotoxicity against human EKVX cells assessed as cell viability at 10 uM incubated for 48 hrs by sulforhodamine B assay relative to control
U-251 = test: Cytotoxicity against human U-251 cells assessed as cell viability at 10 uM incubated for 48 hrs by sulforhodamine B assay relative to control
RXF 393 = test: Cytotoxicity against human RXF 393 cells assessed as cell viability at 10 uM incubated for 48 hrs by sulforhodamine B assay relative to control
PC-3 = test: Cytotoxicity against human PC-3 cells assessed as cell viability at 10 uM incubated for 48 hrs by sulforhodamine B assay relative to control
Malme-3M = test: Cytotoxicity against human Malme-3M cells assessed as cell viability at 10 uM incubated for 48 hrs by sulforhodamine B assay relative to control
CAKI-1 = test: Cytotoxicity against human CAKI-1 cells assessed as cell viability at 10 uM incubated for 48 hrs by sulforhodamine B assay relative to control
HOP-62 = test: Cytotoxicity against human HOP-62 cells assessed as cell viability at 10 uM incubated for 48 hrs by sulforhodamine B assay relative to control
SNB-19 = test: Cytotoxicity against human SNB-19 cells assessed as cell viability at 10 uM incubated for 48 hrs by sulforhodamine B assay relative to control
LOX IMVI = test: Cytotoxicity against human LOX IMVI cells assessed as cell viability at 10 uM incubated for 48 hrs by sulforhodamine B assay relative to control
DU-145 = test: Cytotoxicity against human DU-145 cells assessed as cell viability at 10 uM incubated for 48 hrs by sulforhodamine B assay relative to control
SR = test: Cytotoxicity against human SR cells assessed as cell viability at 10 uM incubated for 48 hrs by sulforhodamine B assay relative to control
HCT-116 = test: Cytotoxicity against human HCT-116 cells assessed as cell viability at 10 uM incubated for 48 hrs by sulforhodamine B assay relative to control
OVCAR-8 = test: Cytotoxicity against human OVCAR-8 cells assessed as cell viability at 10 uM incubated for 48 hrs by sulforhodamine B assay relative to control
SK-MEL-5 = test: Cytotoxicity against human SK-MEL-5 cells assessed as cell viability at 10 uM incubated for 48 hrs by sulforhodamine B assay relative to control
SK-MEL-2 = test: Cytotoxicity against human SK-MEL-2 cells assessed as cell viability at 10 uM incubated for 48 hrs by sulforhodamine B assay relative to control
M14 = test: Cytotoxicity against human M14 cells assessed as cell viability at 10 uM incubated for 48 hrs by sulforhodamine B assay relative to control
RPMI-8226 = test: Cytotoxicity against human RPMI-8226 cells assessed as cell viability at 10 uM incubated for 48 hrs by sulforhodamine B assay relative to control
SF-268 = test: Cytotoxicity against human SF-268 cells assessed as cell viability at 10 uM incubated for 48 hrs by sulforhodamine B assay relative to control
BT-549 = test: Cytotoxicity against human BT-549 cells assessed as cell viability at 10 uM incubated for 48 hrs by sulforhodamine B assay relative to control
MCF7 = test: Cytotoxicity against human MCF7 cells assessed as cell viability at 10 uM incubated for 48 hrs by sulforhodamine B assay relative to control
A549 = test: Cytotoxicity against human A549 cells assessed as cell viability at 10 uM incubated for 48 hrs by sulforhodamine B assay relative to control
NCI-H226 = test: Cytotoxicity against human NCI-H226 cells assessed as cell viability at 10 uM incubated for 48 hrs by sulforhodamine B assay relative to control
MDA-MB-435 = test: Cytotoxicity against human MDA-MB-435 cells assessed as cell viability at 10 uM incubated for 48 hrs by sulforhodamine B assay relative to control
SNB-75 = test: Cytotoxicity against human SNB-75 cells assessed as cell viability at 10 uM incubated for 48 hrs by sulforhodamine B assay relative to control
UACC-257 = test: Cytotoxicity against human UACC-257 cells assessed as cell viability at 10 uM incubated for 48 hrs by sulforhodamine B assay relative to control
SF-539 = test: Cytotoxicity against human SF-539 cells assessed as cell viability at 10 uM incubated for 48 hrs by sulforhodamine B assay relative to control
IGROV-1 = test: Cytotoxicity against human IGROV-1 cells assessed as cell viability at 10 uM incubated for 48 hrs by sulforhodamine B assay relative to control

## O=S(=O)(NCCNc1nccc(-c2c(-c3cccc(F)c3)nc3sccn23)n1)c1ccc(Br)cc1
UO-31
  viability at 10 µM: 21.2%
NCI-H23
  viability at 10 µM: 72.6%
HOP-92
  viability at 10 µM: 76.7%
NCI/ADR-RES
  viability at 10 µM: 61.8%
SW-620
  viability at 10 µM: 54.8%
NCI-H522
  viability at 10 µM: 62.6%
TK-10
  viability at 10 µM: 68.8%
HCT-15
  viability at 10 µM: 29.2%
HCC 2998
  viability at 10 µM: 79.5%
OVCAR-5
  viability at 10 µM: 83.6%
MDA-MB-231
  viability at 10 µM: 69.7%
SF-295
  viability at 10 µM: 58.7%
NCI-H322M
  viability at 10 µM: 61%
Hs-578T
  viability at 10 µM: 63.6%
EKVX
  viability at 10 µM: 59.5%
U-251
  viability at 10 µM: 53.4%
RXF 393
  viability at 10 µM: 72.7%
PC-3
  viability at 10 µM: 51%
Malme-3M
  viability at 10 µM: 71.1%
CAKI-1
  viability at 10 µM: 35.1%
HOP-62
  viability at 10 µM: 83.3%
SNB-19
  viability at 10 µM: 59.3%
LOX IMVI
  viability at 10 µM: 38.5%
DU-145
  viability at 10 µM: 52.5%
SR
  viability at 10 µM: 31.7%
HCT-116
  viability at 10 µM: 33.9%
OVCAR-8
  viability at 10 µM: 45.5%
SK-MEL-5
  viability at 10 µM: 31.5%
SK-MEL-2
  viability at 10 µM: 71.7%
M14
  viability at 10 µM: 52.3%
RPMI-8226
  viability at 10 µM: 58%
SF-268
  viability at 10 µM: 53%
BT-549
  viability at 10 µM: 63.2%
MCF7
  viability at 10 µM: 23.5%
A549
  viability at 10 µM: 34.1%
NCI-H226
  viability at 10 µM: 41.2%
MDA-MB-435
  viability at 10 µM: 21.3%
SNB-75
  viability at 10 µM: 75.3%
UACC-257
  viability at 10 µM: 82%
SF-539
  viability at 10 µM: 76.4%
IGROV-1
  viability at 10 µM: 8.47%

## O=C(NCCCNc1nccc(-c2c(-c3cccc(F)c3)nc3sccn23)n1)c1ccc(F)cc1
UO-31
  viability at 10 µM: 36.9%
NCI-H23
  viability at 10 µM: 105%
HOP-92
  viability at 10 µM: 111%
NCI/ADR-RES
  viability at 10 µM: 78.8%
SW-620
  viability at 10 µM: 115%
NCI-H522
  viability at 10 µM: 85.2%
TK-10
  viability at 10 µM: 95.9%
HCT-15
  viability at 10 µM: 65.2%
HCC 2998
  viability at 10 µM: 112%
OVCAR-5
  viability at 10 µM: 141%
MDA-MB-231
  viability at 10 µM: 120%
SF-295
  viability at 10 µM: 97.2%
NCI-H322M
  viability at 10 µM: 96.3%
Hs-578T
  viability at 10 µM: 83.2%
EKVX
  viability at 10 µM: 82%
U-251
  viability at 10 µM: 90.6%
RXF 393
  viability at 10 µM: 77.3%
PC-3
  viability at 10 µM: 76.2%
Malme-3M
  viability at 10 µM: 140%
CAKI-1
  viability at 10 µM: 73%
HOP-62
  viability at 10 µM: 119%
SNB-19
  viability at 10 µM: 89%
LOX IMVI
  viability at 10 µM: 79.5%
DU-145
  viability at 10 µM: 81.2%
SR
  viability at 10 µM: 99.8%
HCT-116
  viability at 10 µM: 62.5%
OVCAR-8
  viability at 10 µM: 68.4%
SK-MEL-5
  viability at 10 µM: 67.8%
SK-MEL-2
  viability at 10 µM: 95%
M14
  viability at 10 µM: 85.3%
RPMI-8226
  viability at 10 µM: 87.2%
SF-268
  viability at 10 µM: 71%
BT-549
  viability at 10 µM: 85.2%
MCF7
  viability at 10 µM: 71.9%
A549
  viability at 10 µM: 76.3%
NCI-H226
  viability at 10 µM: 69%
MDA-MB-435
  viability at 10 µM: 72.6%
SNB-75
  viability at 10 µM: 83.9%
UACC-257
  viability at 10 µM: 116%
SF-539
  viability at 10 µM: 99.4%
IGROV-1
  viability at 10 µM: 49.4%
